Literature values, collected in US5427767A, “Nanocrystalline magnetic iron oxide particles-method for preparation and use in medical diagnostics and therapy” (Institut fur Diagnostikforschung GmbH an der Freien …, priority 1991, dated 1995).

Key:
[1] = 0.47 T, water, 40° C
[2] = in vivo

| T1 relaxivity [1] | T2 relaxivity [1] | Molecule | allergic potential [2] |
| --- | --- | --- | --- |
| ~4 1/mmol .phi.s | ~4 1/mmol .phi.s | O=C([O-])CN(CCN(CC(=O)[O-])CC(=O)O)CCN(CC(=O)[O-])CC(=O)O.[Gd+3] [Gd-DTPA] |  |
|  |  | dextran | adverse allergic potential |
